Measurements as given in patent US7807673B2, “2-pyrimidinyl pyrazolopyridine ErbB kinase inhibitors” (GlaxoSmithKline LLC, priority 2005, dated 2010).

Legend:
[1] = tested on: BT474 and HN5 tumor cell lines; test: Celltiter Glo growth inhibition assay (cellular Method B); format: cell-based; settings: Homo sapiens, BT-474, 72 h; Table 2, Method B Celltiter Glo, 3 days; class over BT474 and HN5;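 further: class counts the more potent of the two cell lines (BT474 or HN5)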
Experimental: (§1) Human breast tumor cells (BT474) were cultured in RPMI, (Invitrogen, 22400) containing 10% fetal bovine serum (FBS). Human head and neck tumor cells (HN5) were cultured in low glucose DMEM (Invitrogen, 12320) containing 10% FBS. Human colon tumor cells (Colo205) were cultured in DMEM (Invitrogen, 10564) containing 10% FBS. All cell lines were maintained at 37° C. in a humidified 5% CO2, 95% air incubator. Cells were harvested using trypsin/EDTA, counted using a haemocytometer, and plated in 30 microliters of the appropriate media described above, at the following densities, in a half area, black-walled, 96-well tissue culture plate (Corning 3882): BT474 3,000 cells/well, HN5 500 cells/well and Colo205 cells, 3,000 cells/well. The next day, compounds were diluted in DMEM containing 100 mg/ml gentamicin, from 10 mM stock solutions in DMSO. 30 microliters/well of these dilutions were added to the 30 microliters/well of media currently on the cell plates. Medium containing 0.6% DMSO was added to control wells. The final concentration of DMSO in all wells was 0.3%. Cells were incubated at 37° C., 5% CO2 for 3 days. Cell biomass was estimated using Celltiter Glo (Promega G7571). Briefly, plates were removed from the incubator and allowed to equilibrate to rt for 30 minutes. 60 microliters of Celltiter Glo reagent were added to each well of the treated cells and plates were shaken on an orbital plate shaker for 2 min. Plates were incubated without shaking for 30 more min and read in a luminometer with an integration time of 0.5 seconds per well. Percent inhibition of cell growth was calculated relative to vehicle treated control wells. Concentration of compound that inhibits 50% of vehicle control cell growth (IC50) was interpolated using nonlinear regression (Levenberg-Marquardt) and the equation, y=Vmax*(1−(x/(K+x)))+Y2, where “K” was equal to the IC50.

[2] = tested on: Colo205 tumor cell lines; test: as above; format: cell-based; settings: Homo sapiens, COLO 205, 72 h, Table 3, Method B Celltiter Glo, 3 days
Experimental: as §1

[3] = molecular target: T1, ErbB2 or EGFR; test: ErbB enzyme substrate phosphorylation assay (HTRF), Method B (enzyme pre-incubated with compound 1 hour); format: biochemical; settings: Table 1, enzyme Method B: enzyme mix incubated with compound 1 hour at 20° C., reaction started with substrate mix; class over ErbB2 or EGFR
T1 construct: enzymes purified from a baculovirus expression system
Experimental: Compounds of the present invention were tested for EGFR, ErbB-2, and ErbB-4 protein tyrosine kinase inhibitory activity in substrate phosphorylation assays using enzymes purified from a baculovirus expression system. Reagent production was conducted essentially as described in Brignola, P. S., et al, (2002) J. Biol. Chem. 277(2): 1576-1585.
The method measures the ability of the isolated enzyme to catalyse the transfer of the gamma-phosphate from ATP onto the tyrosine residue of a biotinylated synthetic peptide referenced “Peptide C” in Brignola, P. S., et al, (2002) J. Biol. Chem. 277(2):1576-1585. The extent of tyrosine phosphorylation was measured using an anti-phosphotyrosine antibody, and quantified by homogenous time-resolved fluorescence (HTRF).
Reactions were performed in black 384-well polystyrene flat-bottom plates in a final volume of 20 μl. Assays were performed by adding 10 μl of each of the following solutions, substrate Mix and enzyme mix: The Substrate mix contained 100 mM 3-[N-morpholino]propanesulfonic acid (MOPS) (pH 7.5), 2 mM MnCl2, 20 μM ATP, 0.01% Tween-20, 0.1 mg/mL (BSA), 0.8 uM peptide substrate, and 1 mM dithiothreitol. The enzyme mix contained 100 mM MOPS (pH7.5); 0.01% Tween-20; 0.1 mg/mL BSA, and either 0.8 nM EGFR, 10 nM ErbB2, or 1 nM ErbB4
During the course of these studies, two separate methods have been used to measure the potency of compounds. In Method A, the substrate mix was added to the compound plates first, then the reaction was started by adding the enzyme mix. In Method B, the enzyme mix was added to the compound plates and the plates were incubated at 20° C. for 1 hour. The reactions were then started by adding the substrate mix.
After initiating the reaction with either method describe above, the reactions were allowed to proceed for 90 minutes at 20° C. The reactions were then terminated by the addition of 20 μl 100 mM EDTA to each well. 40 μl/well of HTRF detection mix were added to the assay plates. The final concentrations of the detection reagents were: 100 mM HEPES (pH7.5), 0.1 mg/mL BSA, 15 nM streptavidin-labeled allophycocyanin (PerkinElmer), and 1 nM europium-labeled anti-phosphotyrosine antibody (PerkinElmer). Assay plates were left unsealed and were counted in a Wallac Multilabel Counter 1420 (PerkinElmer).
Compounds under analysis were dissolved in Me2SO to 1.0 mM and serially diluted 1 to 3 with Me2SO through twelve dilutions. 1 μl of each concentration was transferred to the corresponding well of an assay plate. This creates a final compound concentration range from 0.00027 to 47.6 μM.
The data for dose responses were plotted as % Inhibition calculated with the data reduction formula 100*(1−(U1−C2)/(C1−C2)) versus concentration of compound where U is the unknown value, C1 is the average control value obtained for 4.76% DMSO, and C2 is the average control value obtained for 0.035 M EDTA. Data were fitted with a curve described by: y=((Vmax*x)/(K+x))+Y2 where Vmax is the upper asymptote, Y2 is the Y intercept, and K is the IC50. The results for each compound were recorded as pIC50s, calculated as follows: pIC50=−Log 10(K)

IC50 [1] [nM] | IC50 [2] [nM] | SMILES | Activity (Method) [3]
100 to 1000 | 100 to 1000 | CN(C)Cc1cccc(Nc2nccc(-c3c(-c4cccc(NC(=O)Cc5cccs5)c4)nn4ccccc34)n2)c1 [Example 7, N-(3-{3-[2-({3-[(Dimethylamino)methyl]phenyl}amino)-4-pyrimidinyl]pyrazolo[1,5-a]pyridin-2-yl}phenyl)-2-(2-thienyl)acetamide] | +++ (B) (at least one pIC50 measurement of greater than 7 against either ErbB2 or EGFR)
– | – | CN1CCc2ccc(Nc3nccc(-c4c(-c5cccc(NC(=O)Cc6cccs6)c5)nn5ccccc45)n3)cc2C1 [Example 8] | +++ (B) (at least one pIC50 measurement of greater than 7 against either ErbB2 or EGFR)
100 to 1000 | 100 to 1000 | Cc1ncoc1-c1cccc(Nc2nccc(-c3c(-c4cccc(NC(=O)Cc5cccs5)c4)nn4ccccc34)n2)c1 [Example 52, N-{3-[3-(2-{[3-(4-methyl-1,3-oxazol-5-yl)phenyl]amino}pyrimidin-4-yl)pyrazolo[1,5-a]pyridin-2-yl]phenyl}-2-(2-thienyl)acetamide] | –
– | – | Cc1c(Nc2nccc(-c3c(-c4ccc(F)c(NC(=O)Cc5cccs5)c4)nn4ccccc34)n2)cccc1OCCN(C)C [Example 60, N-[5-(3-{2-[(3-{[2-(Dimethylamino)ethyl]oxy}-2-methylphenyl)amino]-4-pyrimidinyl}pyrazolo[1,5-a]pyridin-2-yl)-2-fluorophenyl]-2-(2-thienyl)acetamide] | ++ (B) (at least one pIC50 measurement greater than 6 against either ErbB2 or EGFR but no measurement greater than pIC50 of 7)
– | – | CN1CCc2ccc(Nc3nccc(-c4c(-c5ccc(F)c(NC(=O)Cc6cccs6)c5)nn5ccccc45)n3)cc2C1 [Example 63, N-[2-Fluoro-5-(3-{2-[(2-methyl-1,2,3,4-tetrahydro-7-isoquinolinyl)amino]-4-pyrimidinyl}pyrazolo[1,5-a]pyridin-2-yl)phenyl]-2-(2-thienyl)acetamide] | +++ (B) (at least one pIC50 measurement of greater than 7 against either ErbB2 or EGFR)
– | – | COc1ccc(-c2nn3ccccc3c2-c2ccnc(Nc3cccc(OCCN(C)C)c3C)n2)cc1NC(=O)Cc1cccs1 [Example 64, N-[5-(3-{2-[(3-{[2-(Dimethylamino)ethyl]oxy}-2-methylphenyl)amino]-4-pyrimidinyl}pyrazolo[1,5-a]pyridin-2-yl)-2-(methyloxy)phenyl]-2-(2-thienyl)acetamide] | + (B) (no pIC50 measurement greater than 6 against either ErbB2 or EGFR)
– | – | COc1ccc(-c2nn3ccccc3c2-c2ccnc(Nc3cccc(OCCN(C)C)c3)n2)cc1NC(=O)Cc1cccs1 [Example 65, N-[5-(3-{2-[(3-{[2-(Dimethylamino)ethyl]oxy}phenyl)amino]-4-pyrimidinyl}pyrazolo[1,5-a]pyridin-2-yl)-2-(methyloxy)phenyl]-2-(2-thienyl)acetamide] | + (B) (no pIC50 measurement greater than 6 against either ErbB2 or EGFR)
– | – | COc1ccc(-c2nn3ccccc3c2-c2ccnc(Nc3cc(OCCN(C)C)ccc3C)n2)cc1NC(=O)Cc1cccs1 [Example 66, N-[5-(3-{2-[(5-{[2-(Dimethylamino)ethyl]oxy}-2-methylphenyl)amino]-4-pyrimidinyl}pyrazolo[1,5-a]pyridin-2-yl)-2-(methyloxy)phenyl]-2-(2-thienyl)acetamide] | + (B) (no pIC50 measurement greater than 6 against either ErbB2 or EGFR)
– | – | COc1ccc2c(-c3ccnc(Nc4cccc(OCCN(C)C)c4)n3)c(-c3cccc(NC(=O)C4(c5ccccc5)CC4)c3)nn2c1 [Example 67, N-{3-[3-{2-[(3-{[2-(Dimethylamino)ethyl]oxy}phenyl)amino]-4-pyrimidinyl}-6-(methyloxy)pyrazolo[1,5-a]pyridin-2-yl]phenyl}-1-phenylcyclopropanecarboxamide] | ++ (B) (at least one pIC50 measurement greater than 6 against either ErbB2 or EGFR but no measurement greater than pIC50 of 7)
– | – | COc1ccc2c(-c3ccnc(Nc4cccc(OCCN(C)C)c4)n3)c(-c3cccc(NC(=O)/C=C/c4ccccc4)c3)nn2c1 [Example 68, (2E)-N-{3-[3-{2-[(3-{[2-(Dimethylamino)ethyl]oxy}phenyl)amino]-4-pyrimidinyl}-6-(methyloxy)pyrazolo[1,5-a]pyridin-2-yl]phenyl}-3-phenyl-propenamide] | +++ (B) (at least one pIC50 measurement of greater than 7 against either ErbB2 or EGFR)
– | – | COc1ccc2c(-c3ccnc(Nc4cccc(OCCN(C)C)c4)n3)c(-c3cccc(NC(=O)NCc4ccc(F)cc4)c3)nn2c1 [Example 70, N-{3-[3-{2-[(3-{[2-(Dimethylamino)ethyl]oxy}phenyl)amino]-4-pyrimidinyl}-6-(methyloxy)pyrazolo[1,5-a]pyridin-2-yl]phenyl}-N-[(4-fluorophenyl)methyl]urea] | +++ (B) (at least one pIC50 measurement of greater than 7 against either ErbB2 or EGFR)
– | – | Cc1ccc2c(-c3ccnc(Nc4cccc(CN5CCCC5)c4)n3)c(-c3cccc(NC(=O)Cc4cccs4)c3)nn2c1 [Example 71, N-{3-[6-Methyl-3-(2-{[3-(1-pyrrolidinylmethyl)phenyl]amino}-4-pyrimidinyl)pyrazolo[1,5-a]pyridin-2-yl]-phenyl}-2-(2-thienyl)acetamide] | +++ (B) (at least one pIC50 measurement of greater than 7 against either ErbB2 or EGFR)
– | – | Cc1ccc2c(-c3ccnc(Nc4cccc(OCCN(C)C)c4)n3)c(-c3cccc(NC(=O)Cc4cccs4)c3)nn2c1 [Example 72, N-[3-(3-{2-[(3-{[2-(Dimethylamino)ethyl]oxy}phenyl)amino]-4-pyrimidinyl}-6-methylpyrazolo[1,5-a]pyridin-2-yl)phenyl]-2-(2-thienyl)acetamide] | +++ (B) (at least one pIC50 measurement of greater than 7 against either ErbB2 or EGFR)
– | – | CC(=O)N1CCN(c2ccc(Nc3nccc(-c4c(-c5cccc(NC(=O)Cc6cccs6)c5)nn5cc(C)ccc45)n3)cc2)CC1 [Example 73, N-{3-[3-(2-{[4-(4-Acetyl-1-piperazinyl)phenyl]amino}-4-pyrimidinyl)-6-methylpyrazolo[1,5-a]pyridin-2-yl]phenyl}-2-(2-thienyl)acetamide] | +++ (B) (at least one pIC50 measurement of greater than 7 against either ErbB2 or EGFR)
